Entries after “also recorded” stand apart in the source; their conditions may differ.
Test system: HCV replicons encoding amino acid variations R155K, A156T, and D168Y in the NS3 protease
Assay: HCV replicon TaqMan assay, variants compared with wildtype
Type: cell-based, Hepatitis C virus
Conditions: NS3 protease variants versus wildtype genotype 1b (con1)
Experimental: The day prior to titration replicon cells are seeded into a 96-well Costar black-walled clear bottom plate (3,000 cells/well) in 100 μl complete D-MEM and incubated 0/N at 37° C. The next morning 25 μl of compound dilutions (5× final concentration) in complete DMEM and 5% DMSO are added, adjusting the final DMSO concentration to 1.0%. Cells with compound are incubated for 48 hours at 37° C.
Total RNA is isolated from cells of each well using the QIAGEN RNeasy 96-well kit according to manufacturer's instructions (QIAGEN, Inc. Valencia, Calif.). RNA is eluted twice in 60 μl aliquots and combined. […]
The normalized value for the amount of replicon RNA is determined by measuring the experimental cycle threshold CT as described above, determining the amount of RNA against a standard curve of total replicon cell RNA, and normalizing this to the signal produced by the cellular human Cyclophilin A gene using Taqman PDAR Human Cyclophilin (Applied Biosystems Inc., Foster City, Calif.).
HCV replicons encoding amino acid variations R155K, A156T, and D168Y in the NS3 protease have been constructed using standard techniques in molecular cloning. The susceptibility of these replicon variants to inhibition by Compound 6 and a Compound T4, was assessed in the HCV replicon assay, and the results are shown in Table 2. […]

| Compound | change in susceptibility to inhibition of replicon variants versus wildtype |
| --- | --- |
| CC[C@@H]1C[C@]1(NC(=O)[C@@H]1C[C@@H]2CN1C(=O)[C@H](C(C)(C)C)NC(=O)OCC(C)(C)CCCCc1cccc3c1CN(C3)C(=O)O2)C(=O)NS(=O)(=O)C1CC1 [Compound 6] | significantly reduced susceptibility to inhibition; also recorded: significant losses of potency |
| C[C@@]1(O)[C@H](O)[C@@H](CO)O[C@H]1n1cnc2c(N)ncnc21 [Compound T4] | no significant change in susceptibility to inhibition; also recorded: no loss of potency |

— patent US20140328799A1, “COMPOSITIONS USEFUL FOR THE TREATMENT OF VIRAL DISEASES” (priority 2011, published 2014)
